Patent US20260217683A1, “PYRIDAZINONE HETEROCYCLIC COMPOUND MYOSIN II INHIBITOR AND USE THEREOF” (Xizang Haisco Pharmaceutical Co., Ltd., priority 2023, published 2026)
Like-named read-outs stand apart in the source and are kept apart here.

Tests used:
Format in all cases: biochemical
[1] = test system: rabbit skeletal muscle myosin; assay: Inhibition of hydrolysis of ATP by rabbit skeletal muscle myosin
Experimental: The purpose of this test was to evaluate the ability of compounds to inhibit the hydrolysis of ATP by rabbit skeletal muscle myosin. The determination method was as follows:
• Preformed F-actin filaments (#AKF99-B, Cytoskeleton) were diluted to 1 mg/mL with Reaction buffer (25 mM Tris-HCL, pH 7.5+35 mM KCl+0.1 mM EGTA+1 mM MgCl2); • Rabbit myosin (#MYO2-A, Cytoskeleton) was diluted to 0.1 mg/mL with Resuspension buffer (15 mM Tris-HCL, PH7.5+0.2 M KCl+1 mM MgCl2); • ATP (#BSA04-001, Cytoskeleton) was diluted to 3 mM working solution with 15 mM Tris-HCL (PH=7.5);
• adding 13 μL reaction buffer+12 μL F-actin to actin control wells; • adding 10 μL reaction buffer+12 μL F-actin+3 μL myosin II to positive control wells; • adding 10 μL of compound working solution+12 μL of F-actin+3 μL of myosin II to the compound wells; • adding 5 μL of ATP working solution to all test wells to start the reaction, and simultaneously adding a sample to the Pi standard wells according to the instruction (#BK054, Cytoskeleton); • gently mixing and accurately incubating at 37° C. for 60 min; • adding 70 μL of CytoPhos Reagent (#BK054, Cytoskeleton) to each well and incubating for 10 min to stop the reaction.
• the OD value of each well was detected at 650 nm using the endpoint method. The standard curve was fitted according to Pi concentration and OD value, and the Pi concentration of each test well was obtained. Inhibition (%)=(Pi positive control well-Pi test well)/Pi positive control well*100%. The Inhibition %-[…] curve was fitted with Graphpad Prism 8 software, and IC50 was calculated.

cardiac myosin SII = target: T1, cardiac myosin SII (Bos taurus, UniProt Q9BE39); assay: Inhibition of hydrolysis of ATP by cardiac myosin SII; settings: 100 μM compound
T1 construct: purchased Cytoskeleton #MYO3-A
T1 sequence (Q9BE39 whole entry): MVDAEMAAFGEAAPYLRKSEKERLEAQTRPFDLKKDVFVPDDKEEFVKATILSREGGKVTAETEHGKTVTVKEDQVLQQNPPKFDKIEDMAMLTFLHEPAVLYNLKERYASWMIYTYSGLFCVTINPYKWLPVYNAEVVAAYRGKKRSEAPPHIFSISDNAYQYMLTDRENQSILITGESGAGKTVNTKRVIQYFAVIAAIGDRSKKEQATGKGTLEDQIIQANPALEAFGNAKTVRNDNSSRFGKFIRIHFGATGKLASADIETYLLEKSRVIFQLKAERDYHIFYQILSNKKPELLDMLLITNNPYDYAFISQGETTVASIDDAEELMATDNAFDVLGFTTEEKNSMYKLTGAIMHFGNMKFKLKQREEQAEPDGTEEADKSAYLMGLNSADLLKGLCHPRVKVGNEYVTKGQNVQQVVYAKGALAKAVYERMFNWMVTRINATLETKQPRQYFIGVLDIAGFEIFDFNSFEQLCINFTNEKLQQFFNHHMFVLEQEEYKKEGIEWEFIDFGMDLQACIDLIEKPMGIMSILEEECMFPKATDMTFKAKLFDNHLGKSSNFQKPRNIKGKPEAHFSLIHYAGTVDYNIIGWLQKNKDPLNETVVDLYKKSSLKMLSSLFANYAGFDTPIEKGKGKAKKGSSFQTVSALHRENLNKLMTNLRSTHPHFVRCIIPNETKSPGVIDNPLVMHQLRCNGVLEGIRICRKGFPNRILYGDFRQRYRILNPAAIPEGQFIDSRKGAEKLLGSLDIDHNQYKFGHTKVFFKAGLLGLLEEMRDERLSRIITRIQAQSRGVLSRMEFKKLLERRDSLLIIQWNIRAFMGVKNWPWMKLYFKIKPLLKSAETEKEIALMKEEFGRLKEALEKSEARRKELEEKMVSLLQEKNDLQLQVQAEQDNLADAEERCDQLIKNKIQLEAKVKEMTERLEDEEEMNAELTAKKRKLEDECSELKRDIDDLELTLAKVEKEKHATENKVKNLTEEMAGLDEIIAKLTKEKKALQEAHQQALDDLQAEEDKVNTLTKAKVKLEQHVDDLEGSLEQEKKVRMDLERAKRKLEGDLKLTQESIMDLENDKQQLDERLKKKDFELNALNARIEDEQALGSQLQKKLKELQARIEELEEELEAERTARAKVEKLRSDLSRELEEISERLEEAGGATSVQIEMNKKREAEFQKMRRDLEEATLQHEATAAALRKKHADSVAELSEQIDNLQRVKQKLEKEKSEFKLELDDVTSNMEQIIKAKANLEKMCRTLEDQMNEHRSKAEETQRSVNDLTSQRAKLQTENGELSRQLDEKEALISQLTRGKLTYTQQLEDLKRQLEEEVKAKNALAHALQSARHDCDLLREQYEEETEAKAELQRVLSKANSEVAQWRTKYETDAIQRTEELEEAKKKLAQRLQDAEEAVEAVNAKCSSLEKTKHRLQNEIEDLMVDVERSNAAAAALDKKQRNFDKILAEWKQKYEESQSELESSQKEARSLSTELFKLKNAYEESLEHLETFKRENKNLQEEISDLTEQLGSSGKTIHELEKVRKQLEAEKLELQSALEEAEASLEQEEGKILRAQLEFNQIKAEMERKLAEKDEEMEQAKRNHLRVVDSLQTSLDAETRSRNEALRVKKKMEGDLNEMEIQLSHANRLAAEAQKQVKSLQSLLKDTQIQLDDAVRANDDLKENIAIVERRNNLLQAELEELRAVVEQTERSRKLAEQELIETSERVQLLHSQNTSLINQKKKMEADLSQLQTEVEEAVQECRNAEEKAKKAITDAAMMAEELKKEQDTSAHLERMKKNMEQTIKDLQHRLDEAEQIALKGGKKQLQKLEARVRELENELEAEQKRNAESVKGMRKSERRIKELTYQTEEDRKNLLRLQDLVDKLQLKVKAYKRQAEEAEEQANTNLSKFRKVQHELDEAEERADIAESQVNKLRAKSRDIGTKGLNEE
T1 sequence (P85100 whole entry partner): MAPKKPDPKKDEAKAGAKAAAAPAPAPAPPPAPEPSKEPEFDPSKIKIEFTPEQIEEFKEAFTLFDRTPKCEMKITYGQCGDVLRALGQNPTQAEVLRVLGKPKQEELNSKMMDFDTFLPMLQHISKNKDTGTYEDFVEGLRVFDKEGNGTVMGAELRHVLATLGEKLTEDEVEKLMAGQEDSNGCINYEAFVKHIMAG
T1 sequence (Q3SZE5 whole entry partner): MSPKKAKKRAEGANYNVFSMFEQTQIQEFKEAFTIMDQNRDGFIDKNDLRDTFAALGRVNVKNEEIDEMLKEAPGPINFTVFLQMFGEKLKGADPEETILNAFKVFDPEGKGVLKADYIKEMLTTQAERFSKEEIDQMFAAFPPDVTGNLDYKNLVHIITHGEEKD
Experimental: The purpose of this test was to evaluate the ability of compounds to inhibit the hydrolysis of ATP by cardiac myosin SII. The determination method was as follows: • 1. Solution formulation: • Preformed F-actin filaments (#AKF99-B, Cytoskeleton) were diluted to 1 mg/mL with Reaction buffer (15 mM Tris-HCL. PH7.5+10 mM KCl+0.1 mM EGTA+2 mM MgCl2); • Cardiac Muscle myosin (#MYO3-A, Cytoskeleton) was diluted to 1 mg/mL with Resuspension buffer (15 mM Tris-HCL, PH7.5+0.2M KCl+1 mM MgCl2); • ATP (#BSA04-001, Cytoskeleton) was diluted to 3 mM working solution with 15 mM Tris-HCL (PH=7.5); • 2. Formulation of working solution of compounds: the final compound concentration was 100 μM • 3. Experimental steps: • adding 10 μL of compound working solution+12 μL of Preformed F-actin filaments+3 μL of Cardiac Muscle myosin to the compound wells; • adding 10 μL of reaction buffer containing DMSO+12 μL Preformed F-actin filaments +3 μL Cardiac Muscle myosin to positive control wells; • adding 10 μL of reaction buffer containing DMSO+12 μL Preformed F-actin filaments +3 μL Resuspension buffer to negative control wells; • adding 5 μL of 3 mM ATP working solution to all test wells to start the reaction, gently mixing and incubating at 37° C. for 2 h; • after the reaction was completed, taking 6 μL of reaction liquid, adding 24 μL of reaction buffer for 5-fold dilution, then detecting the content of the product Pi with a phosphate kit (#BK054, Cytoskeleton); • adding a sample to Pi standard wells according to the instructions; • adding 70 μL of CytoPhos Reagent (#BK054, Cytoskeleton) to each well and incubating at room temperature for 10 min before detection. • 4. Detection: • the OD value of each well was detected at 650 nm. The standard curve was fitted according to Pi standard concentration and OD value, and the Pi concentration of each test well was obtained. Inhibition (%)=(positive control well−test well)/positive control well*100%.

smooth muscle myosin S1 = target: T2, smooth muscle myosin S1 (Gallus gallus, UniProt P10587); assay: Inhibition of hydrolysis of ATP by smooth muscle myosin S1 fragments; settings: 100 μM compound
T2 construct: purchased Cytoskeleton #CS-MYS05
T2 sequence (P10587 84-789 limits assumed): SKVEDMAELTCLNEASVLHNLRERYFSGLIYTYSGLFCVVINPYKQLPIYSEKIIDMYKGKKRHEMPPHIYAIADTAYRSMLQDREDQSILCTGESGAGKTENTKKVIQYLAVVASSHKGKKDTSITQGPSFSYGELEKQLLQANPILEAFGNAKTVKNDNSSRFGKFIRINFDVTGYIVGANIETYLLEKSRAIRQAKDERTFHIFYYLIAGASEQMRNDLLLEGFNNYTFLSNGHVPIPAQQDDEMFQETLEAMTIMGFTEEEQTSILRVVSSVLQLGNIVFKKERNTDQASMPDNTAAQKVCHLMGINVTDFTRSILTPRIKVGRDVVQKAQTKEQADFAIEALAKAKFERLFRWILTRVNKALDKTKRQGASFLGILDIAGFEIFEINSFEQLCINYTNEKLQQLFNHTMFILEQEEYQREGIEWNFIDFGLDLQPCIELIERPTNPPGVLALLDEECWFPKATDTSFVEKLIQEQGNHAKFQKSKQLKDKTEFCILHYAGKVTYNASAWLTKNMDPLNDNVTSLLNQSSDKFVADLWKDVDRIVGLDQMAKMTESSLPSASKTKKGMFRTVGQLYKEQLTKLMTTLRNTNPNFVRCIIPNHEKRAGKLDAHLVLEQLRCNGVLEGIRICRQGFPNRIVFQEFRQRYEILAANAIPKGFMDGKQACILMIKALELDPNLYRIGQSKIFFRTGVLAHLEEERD
T2 sequence (P02607 whole entry partner, the tested form may be a part): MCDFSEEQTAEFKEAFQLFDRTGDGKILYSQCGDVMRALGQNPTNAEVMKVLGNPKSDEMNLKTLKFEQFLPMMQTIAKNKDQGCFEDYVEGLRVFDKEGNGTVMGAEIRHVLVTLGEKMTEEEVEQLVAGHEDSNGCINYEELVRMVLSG
Experimental: The purpose of this test was to evaluate the ability of compounds to inhibit the hydrolysis of ATP by smooth muscle myosin Si fragments. The determination method was as follows: • 1. Solution formulation • F-actin polymer: Cardiac Actin powder (#CS-AD99, Cytoskeleton) was dissolved in a buffer (5 mM Pipes-KOH solution, PH=7.0, containing 100 μM ATP and 500 μM DTT) to form a 2 mg/mL solution and the solution was left at room temperature for 30 min; then 2 mM MgCl2 and 2 mM EGTA were added and the obtained system was left at room temperature for 40 min; • Smooth muscle SI fragment (#CS-MYS05, Cytoskeleton) was diluted with a pre-cooled PM12 buffer containing 1 mM DTT (12 mM Pipes-KOH solution, PH=7.0, containing 2 mM MgCl2) to form a 0.7 mg/mL solution; • ATP (#BSA04-001, Cytoskeleton) was diluted to 5 mM working solution with 15 mM Tris-HCL (PH=7.5); • 2. […] Experimental steps: • adding 10 μL of compound working solution+6 μL of F-actin polymer+4 μL of Smooth muscle Si fragment solution to the compound wells; • adding 10 μL of PM12 buffer containing DMSO+6 μL of F-actin polymer+4 μL of Smooth muscle S1 fragment solution to positive control wells; • adding 10 μL of PM12 buffer containing DMSO+6 μL of F-actin polymer+4 μL of PM12 buffer to negative control wells; • adding […] of 5 mM ATP working solution to all test wells to start the reaction, gently mixing and incubating at 37° C. for 20 min; • after the reaction was completed, taking 6 μLL of reaction liquid, adding 24 μL of PM12 buffer for 5-fold dilution, then detecting the content of the product Pi with a phosphate kit (#BK054, Cytoskeleton); • adding a standard according to the instructions, adding 70 μL of CytoPhos Reagent (#BK054, Cytoskeleton) to all wells and incubating at room temperature for 10 min before detection. • 4. Detection: • the OD value of each well was detected at 650 nm. The standard curve was fitted according to Pi standard concentration and OD value, and the Pi concentration of each test well was obtained. Inhibition (%)=(positive control well−test well)/positive control well*100%.

[2] = inhibition of hydrolysis of ATP, class symbols, read-out: Rabbit skeletal muscle myosin (IC50)
[3] = read-out: IC50 for inhibition of hydrolysis of ATP by rabbit skeletal muscle myosin

Row | Compound | IC50 [1, 2] [nM] | IC50 [1, 3] [nM] | further results
1 | CC(c1ccc2c(c1)CC2)n1nc(-c2cnc(OCC(F)(F)F)nc2)ccc1=O (single isomer, unassigned) [Compound 64] | < 2500 |  | 
2 | CC(c1ccc2c(c1)CC2)n1nc(-c2cnc(OCC(F)(F)F)nc2)ccc1=O (centres unmarked) [Compound 61] | 2500 to 20000 |  | 
3 | O=c1ccc(-c2cnc(OCCC(F)(F)F)nc2)nn1Cc1ccc2c(c1)CC2 [Compound 65] | < 2500 |  | 
4 | O=c1ccc(-c2cnc(OCCF)nc2)nn1Cc1ccc2c(c1)CC2 [Compound 66] | < 2500 |  | 
5 | O=c1ccc(-c2cnc(OCCC(F)F)nc2)nn1Cc1ccc2c(c1)CC2 [Compound 68] | < 2500 | 100 | 
6 | O=c1ccc(-c2cnc(OCCCF)nc2)nn1Cc1ccc2c(c1)CC2 [Compound 69] | < 2500 | 100 | inhibition at 100 µM (cardiac myosin SII): 19%
7 | O=c1ccc(-c2cnc(OCCCCl)nc2)nn1Cc1ccc2c(c1)CC2 [Compound 70] | < 2500 |  | inhibition at 100 µM (cardiac myosin SII): 18%
8 | O=c1ccc(-c2cnc(OCCCF)nc2)nn1Cc1ccc2c(c1)CCC2 [Compound 71] | < 2500 |  | inhibition at 100 µM (cardiac myosin SII): 21%
9 | O=c1ccc(-c2cnc(OCCF)nc2)nn1Cc1ccc2c(c1)CCC2 [Compound 75] | < 2500 | 500 | 
10 | O=c1ccc(-c2cnc(OCCC(F)F)nc2)nn1Cc1ccc2c(c1)CCC2 [Compound 76] | < 2500 |  | 
11 | O=c1ccc(-c2cnc(OCCCCl)nc2)nn1Cc1ccc2c(c1)CCC2 [Compound 77] | < 2500 |  | 
12 | O=c1ccc(-c2cnc(C3CC3)nc2)nn1Cc1ccc2c(c1)CCC2 [Compound 78] | < 2500 |  | 
13 | O=c1ccc(-c2cnc(OCC(F)(F)F)nc2)nn1Cc1ccc2c(c1)CCC2(F)F [Compound 79] | 2500 to 20000 |  | 
14 | O=c1ccc(-c2cnc(OC3CC3)nc2)nn1Cc1ccc2c(c1)CC2 [Compound 82] | < 2500 | 200 | 
15 | O=c1ccc(-c2cnc(OC3CC(F)(F)C3)nc2)nn1Cc1ccc2c(c1)CC2 [Compound 83] | < 2500 |  | 
16 | O=c1ccc(-c2cnc(OC3CC(F)(F)C3)nc2)nn1Cc1ccc2c(c1)CCC2 [Compound 85] | 2500 to 20000 |  | 
17 | O=c1ccc(-c2cnc(OCC3CC3)nc2)nn1Cc1ccc2c(c1)CC2 [Compound 86] | < 2500 | 200 | 
18 | O=c1ccc(-c2cnc(OCC3CC3(F)F)nc2)nn1Cc1ccc2c(c1)CC2 (centres unmarked) [Compound 87] | < 2500 | 300 | 
19 | O=c1ccc(-c2cnc(OC3COC3)nc2)nn1Cc1ccc2c(c1)CC2 [Compound 94] | < 2500 | 200 | 
20 | O=c1ccc(-c2cnc(OC3CCC(F)(F)CC3)nc2)nn1Cc1ccc2c(c1)CC2 [Compound 96] | 2500 to 20000 |  | inhibition at 100 µM (cardiac myosin SII): -9%
21 | O=c1ccc(-c2cnc(OCC(F)(F)F)nc2)nn1Cc1ccc2c(c1F)CCC2 [Compound 98] | < 2500 | 200 | 

Row | Compound | IC50 [1, 2] [nM] | IC50 [1, 3] [nM] | further results
22 | O=c1ccc(-c2cnc(OCC(F)(F)F)nc2)nn1Cc1cc2c(cc1F)CCC2 [Compound 99] | < 2500 | 800 | 
23 | O=c1ccc(-c2cnc(OCC(F)F)nc2)nn1Cc1ccc2c(c1)C(F)(F)CC2 [Compound 100] | < 2500 | 100 | 
24 | O=c1ccc(-c2cnc(Oc3cncc(F)c3)nc2)nn1Cc1ccc2c(c1)CC2 [Compound 101] | < 2500 | 100 | 
25 | O=c1ccc(-c2cnc(O[C@@H]3CCOC3)nc2)nn1Cc1ccc2c(c1)CC2 [Compound 107] | < 2500 | 200 | 
26 | O=c1cc2c(nn1Cc1ccc3c(c1)CC3)-c1cnc(OC3CCOC3)nc1CC2 (centres unmarked) [Compound 122] | 2500 to 20000 |  | 
27 | O=c1ccc(-c2cnc(Oc3cncc(Cl)c3)nc2)nn1Cc1ccc2c(c1)CCC2 [Compound 132] | < 2500 | 400 | inhibition at 100 µM (cardiac myosin SII): 1%
28 | O=c1ccc(-c2cnc(OCC(F)(F)F)nc2)nn1Cc1ccc2c(c1)C=CC2 [Compound 137] | < 2500 | 300 | inhibition at 100 µM (smooth muscle myosin S1): 11%
29 | O=c1ccc(-c2cnc(OCC(F)(F)F)nc2)nn1Cc1ccc2c(c1)CC=C2 [Compound 138] | < 2500 | 200 | 
30 | O=C1CCc2ccc(Cn3nc(-c4cnc(Oc5ccnc(C(F)(F)F)c5)nc4)ccc3=O)cc21 [Compound 143] | 2500 to 20000 |  | 
31 | O=C1CCc2ccc(Cn3nc(-c4cnc(Oc5cccc(C(F)(F)F)n5)nc4)ccc3=O)cc21 [Compound 144] | 2500 to 20000 |  | 
32 | O=C1CCc2ccc(Cn3nc(-c4cnc(Oc5ccc(F)cn5)nc4)ccc3=O)cc21 [Compound 146] | 2500 to 20000 |  | 
33 | O=C1CCc2ccc(Cn3nc(-c4cnc(OCC(F)(F)F)nc4)ccc3=O)c(F)c21 [Compound 152] | < 2500 |  | inhibition at 100 µM (smooth muscle myosin S1): -5%
34 | O=C1CCc2ccc(Cn3nc4c(cc3=O)CCc3nc(OCC(F)(F)F)ncc3-4)cc21 [Compound 154] | 2500 to 20000 |  | 
35 | O=c1ccc(-c2cnc(OCC(F)(F)F)nc2)nn1Cc1ccc2c(c1)CC1CC21 (centres unmarked) [Compound 161] | < 2500 | 500 | Cardiac myosin SII (Inhibition @ 100 μM) (cardiac myosin SII; 100 µM): 5%
36 | O=C1CCCc2ccc(Cn3nc(-c4cnc(OCC(F)(F)F)nc4)ccc3=O)cc21 [Compound 168] | 2500 to 20000 |  | 
37 | O=C1CCc2c(Cl)cc(Cn3nc(-c4cnc(Oc5cncc(F)c5)nc4)ccc3=O)cc21 [Compound 173] | < 2500 | 530 | 
38 | O=C1CCc2c(Cl)cc(Cn3nc(-c4cnc(Oc5cccc(F)n5)nc4)ccc3=O)cc21 [Compound 174] | < 2500 |  | 
39 | O=C1CCc2c(Cl)cc(Cn3nc(-c4cnc(Oc5cncc(Cl)c5)nc4)ccc3=O)cc21 [Compound 175] | < 2500 | 530 | 
40 | O=C1CCc2c1cc(Cn1nc(-c3cnc(OCC(F)(F)F)nc3)ccc1=O)cc2C1CC1 [Compound 177] | 2500 to 20000 |  | 
41 | O=c1ccc(-c2cnc(OCC(F)F)nc2)nn1Cc1ccc2c(c1)CC2 [compound 60] | < 2500 | 100 | 
